Laboratory results from patent EP3901142A1, “PYRAZOLYLBENZENE-1,3-DIOLS FOR DISEASES ASSOCIATED WITH G PROTEIN-COUPLED RECEPTOR 18 AND IN COMBINATION WITH TRANSIENT RECEPTOR POTENTIAL VANILLOID 1” (Consejo Superior de Investigaciones Científicas (CSIC), priority 2020, dated 2021).

Target: TRPV1 (Homo sapiens, UniProt Q8NER1)
Assay: Calcium imaging (Fura-2 AM) in TRPV1-expressing cells
Type: cell-based
Details: 5 µM; TPRV1-expressing cells
Experimental: Cell Culture. A plasmid containing GPR18 (NM_005292) was obtained from Origene (Rockville, MD) and engineered with an N-terminal GFP-tag. The resulting plasmid was used to transfect CHO-K1 cells using Lipofectamine 2000 (Invitrogen, Carlsbad CA). Clonal cells were selected in medium containing G418 (Geneticin, 800 µg/ml; Enzo Life Sciences, Farmingdale, NY). Two weeks after transfection, clones were isolated and expression was verified by fluorescence microscopy of GFP-tagged receptors. The resulting stable cell line was cultured in DMEM with 10% fetal bovine serum at 37°C, 5% CO2 and passaged every 2-3 days. […] Two weeks after transfection, clones were isolated and expression was verified by fluorescence microscopy of HA-tagged receptors. […] Intracellular calcium levels were determined by measuring fluorescence emissions from Fura-2 AM (510 nm) after alternating excitation at 340 and 380 nm at 0.25 Hz for 5 min. Images were analyzed in the NIS-Elements AR software (Nikon), and the fluorescence ratio at 340nm/380nm was converted to Ca^2+ concentrations.

Sequence of TRPV1 (Q8NER1 whole entry): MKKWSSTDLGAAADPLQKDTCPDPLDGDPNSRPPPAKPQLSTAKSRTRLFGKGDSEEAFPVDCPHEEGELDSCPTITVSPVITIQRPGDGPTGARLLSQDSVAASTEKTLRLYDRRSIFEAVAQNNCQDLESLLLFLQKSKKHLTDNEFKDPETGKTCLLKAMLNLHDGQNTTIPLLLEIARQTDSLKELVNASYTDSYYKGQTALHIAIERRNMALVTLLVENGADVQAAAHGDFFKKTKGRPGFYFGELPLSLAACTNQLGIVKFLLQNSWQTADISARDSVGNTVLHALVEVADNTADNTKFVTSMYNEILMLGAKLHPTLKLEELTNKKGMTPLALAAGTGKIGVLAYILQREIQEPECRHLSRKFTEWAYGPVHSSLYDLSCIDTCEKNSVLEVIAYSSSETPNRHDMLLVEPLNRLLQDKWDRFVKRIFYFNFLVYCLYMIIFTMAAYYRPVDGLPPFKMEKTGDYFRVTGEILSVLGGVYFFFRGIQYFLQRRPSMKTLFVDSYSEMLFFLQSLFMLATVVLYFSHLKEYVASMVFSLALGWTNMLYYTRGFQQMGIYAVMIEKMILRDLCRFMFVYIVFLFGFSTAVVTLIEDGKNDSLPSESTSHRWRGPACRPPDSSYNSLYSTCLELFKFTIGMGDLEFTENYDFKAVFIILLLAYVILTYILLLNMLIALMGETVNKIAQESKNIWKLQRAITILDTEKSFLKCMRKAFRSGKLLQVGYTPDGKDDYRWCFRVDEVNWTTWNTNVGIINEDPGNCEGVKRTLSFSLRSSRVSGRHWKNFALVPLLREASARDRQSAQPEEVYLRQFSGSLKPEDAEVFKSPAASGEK

With `CCCCC/C=C\C/C=C\C/C=C\C/C=C\CCCC(=O)NCCO` [Anandamide] the “effect on intracellular calcium (Ca^2+)” value was “increases intracellular calcium (Ca^2+)”.
